Earlier results on six substances are cited in patent US7125702B2, “Process for the preparation of angiotensis converting enzyme (ACE) inhibitors and its use” (Council of Scientific and Industrial Research, priority 2003, dated 2006).

A word on the IC50: it is the concentration at which inhibition is half-maximal.

In data set [1] the target is angiotensin I-converting enzyme (Homo sapiens, UniProt P12821). As to conditions: read-out: IC50 (ACE inhibition).
In data set [2] the target is angiotensin-converting enzyme (Homo sapiens, UniProt P12821). As to conditions: read-out: IC50 (ACE inhibition).
For data set [3], the system named is spontaneously hypertensive rats. As to conditions: 30 mg/kg intravenous injection.

Chain of angiotensin-converting enzyme (P12821 30-1306): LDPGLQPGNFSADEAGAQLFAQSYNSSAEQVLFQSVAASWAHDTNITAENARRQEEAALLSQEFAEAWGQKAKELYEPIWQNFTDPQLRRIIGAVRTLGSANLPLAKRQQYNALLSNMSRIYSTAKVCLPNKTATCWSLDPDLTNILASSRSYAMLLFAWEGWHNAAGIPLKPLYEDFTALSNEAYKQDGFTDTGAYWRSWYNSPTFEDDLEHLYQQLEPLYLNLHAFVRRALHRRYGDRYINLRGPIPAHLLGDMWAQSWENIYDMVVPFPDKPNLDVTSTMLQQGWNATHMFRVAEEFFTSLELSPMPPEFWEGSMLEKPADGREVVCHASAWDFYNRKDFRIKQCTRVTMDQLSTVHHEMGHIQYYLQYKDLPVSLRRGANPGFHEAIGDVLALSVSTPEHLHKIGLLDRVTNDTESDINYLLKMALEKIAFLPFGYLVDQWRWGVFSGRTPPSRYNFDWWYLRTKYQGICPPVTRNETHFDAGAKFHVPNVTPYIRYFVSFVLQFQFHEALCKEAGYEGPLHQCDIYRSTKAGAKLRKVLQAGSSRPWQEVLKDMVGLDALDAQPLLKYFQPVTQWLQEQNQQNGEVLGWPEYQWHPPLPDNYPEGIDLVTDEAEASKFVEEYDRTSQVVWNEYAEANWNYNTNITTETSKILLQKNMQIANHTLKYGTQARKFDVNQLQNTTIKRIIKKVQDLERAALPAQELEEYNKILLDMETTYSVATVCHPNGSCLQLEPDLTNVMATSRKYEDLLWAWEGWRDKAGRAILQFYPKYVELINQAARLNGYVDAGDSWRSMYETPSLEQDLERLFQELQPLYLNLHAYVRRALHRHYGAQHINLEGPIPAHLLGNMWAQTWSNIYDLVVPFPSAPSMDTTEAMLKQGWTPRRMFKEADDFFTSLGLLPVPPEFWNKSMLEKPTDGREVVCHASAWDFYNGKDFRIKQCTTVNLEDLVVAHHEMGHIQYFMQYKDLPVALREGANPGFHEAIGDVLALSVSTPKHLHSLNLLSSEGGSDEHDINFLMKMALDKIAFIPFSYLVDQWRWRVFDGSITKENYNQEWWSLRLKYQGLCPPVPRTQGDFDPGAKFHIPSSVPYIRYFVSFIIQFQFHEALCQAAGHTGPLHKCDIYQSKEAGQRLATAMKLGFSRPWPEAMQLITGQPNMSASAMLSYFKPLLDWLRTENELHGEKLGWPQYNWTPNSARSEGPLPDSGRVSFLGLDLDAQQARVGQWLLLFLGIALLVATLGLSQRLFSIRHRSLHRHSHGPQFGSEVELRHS
Chain of angiotensin I-converting enzyme (P12821 30-1306): as above

Consider Ap-Leu-Pro, for which, in data set [1], the IC50 was 4800 nM.
With Asp-Gly, the half-maximal inhibitory concentration (IC50) in data set [1] was 12300 nM.
Turning to His-His-Leu, the “pressure in the aorta” value in the data set with blood pressure (synthetic peptide) is reported as “significant pressure decrease”. Also, the “systolic blood pressure decrease” value in the data set with blood pressure (triple injections of the peptide) was 61 mm Hg.
On to “Leu-Arg-Pro [tripeptide from thermolysin hydrolysate of α-zein]”, for which the IC50 in data set [2] was 270 nM. Moreover, the blood pressure decrease in data set [3] is given as 15 mm Hg.
With “Leu-Asn-Pro [tripeptide from thermolysin hydrolysate of α-zein]”, the IC50 in data set [2] was 1900 nM.
Consider “Leu-Ser-Pro [tripeptide from thermolysin hydrolysate of α-zein]”, for which, in data set [2], the IC50 was 1700 nM.
